Where “and” joins values, the source holds several entries; their conditions need not be identical. Equal entries are not always repeated.
How the values were obtained:
[1] = test system: Human patients exhibiting symptoms of BPH; experiment: Prostate size by MRI after transurethral ethanol ablation with coadministered bicalutamide; type: in vivo; conditions: individual patient
Experimental: (§1) Measurements of each patient's prostate size were obtained prior to ethanol ablation by MRI. Flowmetry measurements were also taken.
(§2) Each patient was then administered ethanol ablation therapy by transurethral injection directly into prostate tissue, as summarized in Table 1. Total amount of ethanol injected ranged from about 22% to about 38% relative to the volume of the patient's prostate. The number of injection sites ranged from 3 to 11; the average number of injection sites was 5.8. Following ethanol ablation therapy, each patient was administered bicalutamide, 150 mg orally each day for sixty days, beginning on the day of treatment.
(§3) A three-month and six-month follow-up examination was done for each patient to evaluate prostate size and flowmetry results.

[2] = dosages up to 200 mg per day, long-term clinical trials; cited from earlier work
[3] = test system: Human patients exhibiting symptoms of BPH; experiment: Flowmetry after transurethral ethanol ablation with coadministered bicalutamide; type: in vivo; conditions: individual patient
Experimental: as §1, §2, §3

[4] = test system: Human patients exhibiting symptoms of BPH; experiment: International Prostate Symptom Score questionnaire; type: in vivo; conditions: individual patient
Experimental: as §2, with “Measurements of each patient's prostate size were obtained prior to ethanol ablation by MRI. Flowmetry measurements were also taken. Each” for “Each”, “treatment. Survey data was also acquired pre-treatment and at the three-month and six-month followups. Patients were evaluated for subjective symptom severity using an International Prostate Symptom Score questionnaire.” for “treatment.”

prostate weight = conditions: compared with antiandrogens presently used; cited from earlier work

Row | Structure (SMILES) | Post-treatment Evaluation (3 months) Size ([1]; 3 months after transurethral ethanol ablation plus bicalutamide 150 mg orally each day for sixty days) | Post-treatment Evaluation (6 months) Size ([1]; 6 months after transurethral ethanol ablation plus bicalutamide 150 mg orally each day for sixty days) | tolerability [2] | Post-treatment Evaluation (3 months) Qmax ([3]; maximum flow rate, 3 months after ethanol ablation plus bicalutamide 150 mg orally daily for sixty days) | Post-treatment Evaluation (6 months) Qmax ([3]; maximum flow rate, 6 months after ethanol ablation plus bicalutamide 150 mg orally daily for sixty days) | Post-treatment Evaluation (3 months) Qmed ([3]; median flow rate, 3 months after ethanol ablation plus bicalutamide 150 mg orally daily for sixty days) | Post-treatment Evaluation (6 months) Qmed ([3]; median flow rate, 6 months after ethanol ablation plus bicalutamide 150 mg orally daily for sixty days) | IPSS at 3 months ([4]; 3 months after ethanol ablation plus bicalutamide 150 mg orally daily for sixty days) | IPSS at 6 months ([4]; 6 months after ethanol ablation plus bicalutamide 150 mg orally daily for sixty days) | potency in reducing prostate weight (prostate weight)
1 | CC(O)(CS(=O)(=O)c1ccc(F)cc1)C(=O)Nc1ccc(C#N)c(C(F)(F)F)c1 (racemic) [bicalutamide, (+−) N-[4-cyano-3-(trifluoromethyl)phenyl]-3-[(4-fluorophenyl)sulfonyl]-2-hydroxy-2-methyl propanimide] | 40 g (2×) and 36 g and 28 g and 30 g (2×) and 25 g and 78 g (2×) and 63 g and 45 g and 42 g and 54 g and 98 g and 15 g | 28 g (2×) and 30 g and 20 g (3×) and 21 g (2×) and 19 g (2×) and 32 g and 18 g (2×) and 27 g and 23 g | well-tolerated | 18 mL/sec (2×) and 7 mL/sec and 4 mL/sec and 12 mL/sec (2×) and 11 mL/sec (2×) and 17 mL/sec (2×) and 13 mL/sec (2×) and 15 mL/sec and 10 mL/sec and 21 mL/sec | 18 mL/sec and 13 mL/sec (2×) and 19 mL/sec and 15 mL/sec (4×) and 14 mL/sec and 30 mL/sec and 17 mL/sec (2×) and 12 mL/sec and 20 mL/sec and 21 mL/sec | 11 mL/sec and 3 mL/sec (2×) and 4 mL/sec and 7 mL/sec (4×) and 5 mL/sec (3×) and 8 mL/sec and 2 mL/sec (2×) and 9 mL/sec | 11 mL/sec (3×) and 10 mL/sec (4×) and 9 mL/sec (5×) and 13 mL/sec and 8 mL/sec and 5 mL/sec | 10 (2×) and 4 (2×) and 8 (2×) and 24 and 9 and 21 and 14 and 15 and 13 and 3 and 20 and 18 | 9 (2×) and 6 and 8 (4×) and 14 and 12 (2×) and 7 and 10 and 3 and 20 and 4 | –
2 | CC1(C)C(=O)N(c2ccc(C#N)c(C(F)(F)F)c2)C(=O)N1CC#N [RU 58642] | – | – | – | – | – | – | – | – | – | more potent
